From PubChem BioAssay AID1963978 (Molecular Pharmacology Branch, DTP, NCI, 2024)

Test system: 616215-338-R-J1-PDC spheroids with HUVEC/MSC, viability
Test: Anticancer human tumor 616215-338-R-J1-PDC patient-derived colon adenocarcinoma cell line growth inhibition [PI3K]
Details: for IC50: curve of first compound; for viability, T/C: stronger effect = lower value
Text: Combinatorial screen of targeted agents with the PI3K inhibitors inavolisib, alpelisib, duvelisib, and copanlisib in multi-cell type tumor spheroids
A high-throughput screen of multi-cell type tumor spheroids was designed to identify active combinations of targeted small molecules and PI3K pathway inhibitors. Complex spheroids include a stromal component modeled by human endothelial cells (HUVEC) and fibroblasts modeled by human mesenchymal stem cells (MSCs). The concentration ranges selected for each drug and investigational agent were based upon clinically achievable concentrations if the clinical Cmax of the agent was known.
Compounds. The drugs and investigational agents: inavolisib (NSC800729), alpelisib (NSC765974), duvelisib (NSC772469), copanlisib (NSC816437), ipatasertib (NSC767898), afuresertib (NSC778305), talazoparib (NSC767125), sapanisertib (NSC764658), selumetinib (NSC741078), tovorafenib (DAY101, NSC766906), vemurafenib (NSC761431), ravoxertinib (NSC781343), sotorasib (NSC818433), MRTX1133 (NSC 836407), abemaciclib (NSC 768073), palbociclib (NSC758247), venetoclax (NSC 766270), SY5609 (NSC837396), enzalutamide (NSC755605), and darolutamide (NSC825331), were obtained from the National Cancer Institute (NCI) Developmental Therapeutics Program Chemical Repository. The FDA-approved anticancer drug set is available from the NCI Developmental Therapeutics Program. […] The stock solutions were prepared in dimethyl sulfoxide (DMSO, Sigma-Aldrich, St. Louis, MO, cat. D2650) at 800-fold the tested concentration and stored at -70 degrees C prior to their use. All drugs and investigational agents were tested over a range starting from a high concentration at or near the clinical Cmax and decreasing in half-log increments. If the clinical Cmax for an agent had not been determined, the highest concentration tested was 10 microM.
Cell Culture. All cells were maintained in an incubator at 37 degrees C and 5% CO2 with 95% humidity. The PDC lines were cultured according to standard operating procedures established by the NCI PDMR (https://pdmr.cancer.gov/sops/default.htm). All PDCs were thawed and cultured in Matrigel-coated flasks prepared with a working solution of 1X Ham's F-12 nutrient mix, without supplementation (Invitrogen, Waltham, MA, cat. 11765054), 100 U/mL penicillin-streptomycin (Invitrogen, cat. 15140122), and 2.5% Matrigel (Corning Inc., Corning, NY, cat. 354248) for the first three passages. The 354836-022-R-J1-PDC, 475296-252-R-J1-PDC, and 997726-040-R-J2-PDC lines were cultured in 6A media, which includes advanced DMEM/F-12 (Thermo Fisher Scientific, cat. 12634028), 10 mM HEPES (Thermo Fisher Scientific, cat. 15630080), 1X GlutaMAX supplement (Thermo Fisher Scientific, cat. 35050061), 0.1 mg/mL primocin (InvivoGen, San Diego, CA, cat. ant-pm-2), 10% defined fetal bovine serum, heat inactivated (HyClone Laboratories Inc., Logan, UT, cat. SH30070.03HI), 50% L-WRN conditioned media (ATCC, cat. CRL-3276), 1.25 mM N-Acetyl-L-cysteine (Sigma-Aldrich, cat. A9165), 10 mM nicotinamide (Sigma-Aldrich, cat. N0636), 1X B-27 supplement (Thermo Fisher Scientific, cat. 17504044), 1X N-2 supplement (Thermo Fisher Scientific, cat. 17502048), and 10 microM Y-27632 dihydrochloride (Tocris Bioscience, Bristol, United Kingdom, cat. 1254). The 624824-186-R-J2-PDC line was cultured in 6C/Colon 1B media, which includes all 6A media components plus 50 ng/mL human EGF recombinant protein (Thermo Fisher Scientific, cat. PHG0311). […]

[1] = second compound 0.0316 µM, first compound 0.0316 µM
[2] = second compound 0.0316 µM, first compound 0.1 µM
[3] = second compound 0.0316 µM, first compound 0.316 µM
[4] = second compound 0.0316 µM, first compound 1 µM
[5] = second compound 0.0316 µM, first compound 3.16 µM
[6] = second compound 0.0316 µM, first compound 10 µM
[7] = second compound 0.1 µM, first compound 0.0316 µM
[8] = second compound 0.1 µM, first compound 0.1 µM
[9] = second compound 0.1 µM, first compound 0.316 µM
[10] = second compound 0.1 µM, first compound 1 µM
[11] = second compound 0.1 µM, first compound 3.16 µM
[12] = second compound 0.1 µM, first compound 10 µM
[13] = second compound 0.316 µM, first compound 0.0316 µM
[14] = second compound 0.316 µM, first compound 0.1 µM
[15] = second compound 0.316 µM, first compound 0.316 µM
[16] = second compound 0.316 µM, first compound 1 µM
[17] = second compound 0.316 µM, first compound 3.16 µM
[18] = second compound 0.316 µM, first compound 10 µM
[19] = second compound 1 µM, first compound 0.0316 µM
[20] = second compound 1 µM, first compound 0.1 µM
[21] = second compound 1 µM, first compound 0.316 µM
[22] = second compound 1 µM, first compound 1 µM
[23] = second compound 1 µM, first compound 3.16 µM
[24] = second compound 1 µM, first compound 10 µM
[25] = second compound 0.00316 µM, first compound 0.0316 µM
[26] = second compound 0.00316 µM, first compound 0.1 µM
[27] = second compound 0.00316 µM, first compound 0.316 µM
[28] = second compound 0.00316 µM, first compound 1 µM
[29] = second compound 0.01 µM, first compound 0.0316 µM
[30] = second compound 0.01 µM, first compound 0.1 µM
[31] = second compound 0.01 µM, first compound 0.316 µM
[32] = second compound 0.01 µM, first compound 1 µM
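Further: spheroids exposed to agents for seven days before the viability read.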

For `C#Cc1c(F)ccc2cc(O)cc(-c3ncc4c(N5CC6CCC(C5)N6)nc(OCC56CCCN5CC(F)C6)nc4c3F)c12` (stereo unspecified) + CC(Nc1ncnc2nc[nH]c12)c1cc2cccc(Cl)c2c(=O)n1-c1ccccc1, the IC50 (second compound 0.0316 µM) was over 10000 nM, the IC50 (second compound 0.1 µM) was over 10000 nM and the IC50 (second compound 0.316 µM) was over 10000 nM. The IC50 (second compound 1 µM) was over 10000 nM, the IC50 (second compound 3.16 µM) was over 10000 nM and the IC50 (second compound 10 µM) was over 10000 nM. It also gave a viability, T/C [1] of 99.5%, a viability, T/C [2] of 93.7% and a viability, T/C [3] of 102%. For the same compound, the viability, T/C [4] was 109%, the viability, T/C [5] was 109% and the viability, T/C [6] was 73.3%. For the same compound, the viability, T/C [7] was 102%, the viability, T/C [8] was 110% and the viability, T/C [9] was 98.5%. For the same compound, the viability, T/C [10] was 99.8%, the viability, T/C [11] was 102% and the viability, T/C [12] was 81.3%. For the same compound, the viability, T/C [13] was 111%, the viability, T/C [14] was 97.7% and the viability, T/C [15] was 98.2%. The viability, T/C [16] was 99.8%, the viability, T/C [17] was 104% and the viability, T/C [18] was 68.2%. For the same compound, the viability, T/C [19] was 100%, the viability, T/C [20] was 110% and the viability, T/C [21] was 108%. It also gave a viability, T/C [22] of 104%, a viability, T/C [23] of 122% and a viability, T/C [24] of 74.7%. For the same compound, the viability, T/C (second compound 3.16 µM, first compound 0.0316 µM) was 111%, the viability, T/C (second compound 3.16 µM, first compound 0.1 µM) was 97.7% and the viability, T/C (second compound 3.16 µM, first compound 0.316 µM) was 103%. For the same compound, the viability, T/C (second compound 3.16 µM, first compound 1 µM) was 107%, the viability, T/C (second compound 3.16 µM, first compound 3.16 µM) was 98.4% and the viability, T/C (second compound 3.16 µM, first compound 10 µM) was 58.4%. The viability, T/C (second compound 10 µM, first compound 0.0316 µM) was 104%, the viability, T/C (second compound 10 µM, first compound 0.1 µM) was 108% and the viability, T/C (second compound 10 µM, first compound 0.316 µM) was 109%. For the same compound, the viability, T/C (second compound 10 µM, first compound 1 µM) was 105%, the viability, T/C (second compound 10 µM, first compound 3.16 µM) was 95% and the viability, T/C (second compound 10 µM, first compound 10 µM) was 62.5%.

Compound `CCN1CCN(Cc2ccc(Nc3ncc(F)c(-c4cc(F)c5nc(C)n(C(C)C)c5c4)n3)nc2)CC1` + COc1c(OCCCN2CCOCC2)ccc2c3n(c(=NC(=O)c4cnc(N)nc4)nc12)CCN3 has an IC50 (second compound 0.00316 µM) of over 1000 nM, an IC50 (second compound 0.01 µM) of over 1000 nM and an IC50 (second compound 0.0316 µM) of over 1000 nM. The IC50 (second compound 0.1 µM) was 185 nM, the IC50 (second compound 0.316 µM) was under 3.16 nM and the IC50 (second compound 1 µM) was under 3.16 nM. It also gave a viability, T/C (second compound 0.00316 µM, first compound 0.00316 µM) of 80.7%, a viability, T/C (second compound 0.00316 µM, first compound 0.01 µM) of 104% and a viability, T/C [25] of 100%. It also gave a viability, T/C [26] of 97.3%, a viability, T/C [27] of 128% and a viability, T/C [28] of 90.8%. The viability, T/C (second compound 0.01 µM, first compound 0.00316 µM) was 89.5%, the viability, T/C (second compound 0.01 µM, first compound 0.01 µM) was 105% and the viability, T/C [29] was 104%. It also gave a viability, T/C [30] of 118%, a viability, T/C [31] of 138% and a viability, T/C [32] of 87.6%. The viability, T/C (second compound 0.0316 µM, first compound 0.00316 µM) was 108%, the viability, T/C (second compound 0.0316 µM, first compound 0.01 µM) was 109% and the viability, T/C [1] was 103%. The viability, T/C [2] was 106%, the viability, T/C [3] was 112% and the viability, T/C [4] was 55.9%. For the same compound, the viability, T/C (second compound 0.1 µM, first compound 0.00316 µM) was 87.8%, the viability, T/C (second compound 0.1 µM, first compound 0.01 µM) was 80.3% and the viability, T/C [7] was 64.9%. The viability, T/C [8] was 54.9%, the viability, T/C [9] was 47.1% and the viability, T/C [10] was 34.7%. For the same compound, the viability, T/C (second compound 0.316 µM, first compound 0.00316 µM) was 36.1%, the viability, T/C (second compound 0.316 µM, first compound 0.01 µM) was 33.8% and the viability, T/C [13] was 33%. The viability, T/C [14] was 40.7%, the viability, T/C [15] was 33.4% and the viability, T/C [16] was 32%. The viability, T/C (second compound 1 µM, first compound 0.00316 µM) was 22.3%, the viability, T/C (second compound 1 µM, first compound 0.01 µM) was 23.4% and the viability, T/C [19] was 20.6%. It also gave a viability, T/C [20] of 24.6%, a viability, T/C [21] of 27.2% and a viability, T/C [22] of 31.1%.

Compound `Cn1nccc1Nc1nccc(-c2ccn(C(CO)c3ccc(Cl)c(F)c3)c(=O)c2)n1` (stereo unspecified) + COc1c(OCCCN2CCOCC2)ccc2c3n(c(=NC(=O)c4cnc(N)nc4)nc12)CCN3 has an IC50 (second compound 0.00316 µM) of 3280 nM, an IC50 (second compound 0.01 µM) of 1110 nM and an IC50 (second compound 0.0316 µM) of 659 nM. It also gave an IC50 (second compound 0.1 µM) of 412 nM, an IC50 (second compound 0.316 µM) of under 31.6 nM and an IC50 (second compound 1 µM) of under 31.6 nM. The viability, T/C [25] was 99.7%, the viability, T/C [26] was 94.4% and the viability, T/C [27] was 76.8%. The viability, T/C [28] was 67.7%, the viability, T/C (second compound 0.00316 µM, first compound 3.16 µM) was 48.5% and the viability, T/C (second compound 0.00316 µM, first compound 10 µM) was 40.7%. It also gave a viability, T/C [29] of 96.7%, a viability, T/C [30] of 102% and a viability, T/C [31] of 81.2%. The viability, T/C [32] was 49.8%, the viability, T/C (second compound 0.01 µM, first compound 3.16 µM) was 42.4% and the viability, T/C (second compound 0.01 µM, first compound 10 µM) was 28.8%. It also gave a viability, T/C [1] of 94.1%, a viability, T/C [2] of 92.8% and a viability, T/C [3] of 59.6%. For the same compound, the viability, T/C [4] was 42.2%, the viability, T/C [5] was 25.6% and the viability, T/C [6] was 10.7%. It also gave a viability, T/C [7] of 92.4%, a viability, T/C [8] of 83.8% and a viability, T/C [9] of 46.6%. For the same compound, the viability, T/C [10] was 37.5%, the viability, T/C [11] was 13.9% and the viability, T/C [12] was 0.2%. For the same compound, the viability, T/C [13] was 38%, the viability, T/C [14] was 38.6% and the viability, T/C [15] was 22.6%. The viability, T/C [16] was 13.2%, the viability, T/C [17] was 1.77% and the viability, T/C [18] was 0.14%. For the same compound, the viability, T/C [19] was 19.6%, the viability, T/C [20] was 11.4% and the viability, T/C [21] was 4.09%. The viability, T/C [22] was 0.93%, the viability, T/C [23] was 0.9% and the viability, T/C [24] was 0.16%.
